{"source": "PubChem BioAssay AID2060599", "about": "(Molecular Pharmacology Branch, DTP, NCI, 2025);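 also: spheroids exposed to the agents for seven days before readout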", "tested_on": "817829-284-R-J1-PDC complex spheroids, viability", "test": "Anticancer human tumor 817829-284-R-J1-PDC patient-derived colon adenocarcinoma cell line growth inhibition [CLK]", "settings": "for IC50: curve of first compound; for viability, T/C: stronger effect = lower value", "description": "A high-throughput screen of multi-cell type tumor spheroids was designed to identify active combinations of […] and targeted small molecules. Complex spheroids include a stromal component modeled by human endothelial cells (HUVEC) and fibroblasts modeled by human mesenchymal stem cells (MSCs). The concentration ranges selected for each drug and investigational agent were based upon clinically achievable concentrations if the clinical Cmax of the agent was known.\nCompounds. The drugs and investigational agents: cirtuvivint (SM08502; NSC835563), CC-671 (NSC850746), vemurafenib (NSC761431), tapotoclax (NSC804041), sotorasib (NSC818433), adagrasib (NSC831453), MRTX-1133 (NSC836407), BAY2416964 (NSC825713), copanlisib (NSC816437), inavolisib (NSC800729), abemaciclib (NSC768073), osimertinib (NSC779217), entinostat (NSC756642), eltanexor (KPT-8602, NSC794443), venetoclax (NSC766270), ceralasertib (NSC777638), bortezomib (NSC756655), olaparib (NSC753686), talazoparib (NSC767125), alisertib (NSC759677), peposertib (NSC802822), gemcitabine (NSC613327), 5-fluorouracil (NSC19893), SN-38 (NSC673596), oxaliplatin (NSC266046), paclitaxel (NSC125973), and doxorubicin (NSC123127), were obtained from the National Cancer Institute (NCI) Developmental Therapeutics Program Chemical Repository. The FDA-approved anticancer drug set is available from the Developmental Therapeutics Program at https://dtp.cancer.gov/organization/dscb/obtaining/available plates.htm. […] The stock solutions were prepared in dimethyl sulfoxide (DMSO, Sigma-Aldrich, St. Louis, MO, cat. D2650), except for the platinum complexes which were prepared in saline (Quality Biological, Gaithersburg, MD, cat. 114-055-101), at 800-fold the tested concentration and stored at -70 degrees C prior to their use. All drugs and investigational agents were tested over a range starting from a high concentration at or near the clinical Cmax and decreasing in half-log increments. If the clinical Cmax for an agent had not been determined, the highest concentration tested was 10 microM.\nCell Culture. All cells were maintained in an incubator at 37 degrees C and 5% CO2 with 95% humidity. The PDC lines were cultured according to standard operating procedures established by the NCI PDMR. Briefly, all PDCs were thawed and cultured in Matrigel-coated flasks prepared with a working solution of 1X Ham's F-12 nutrient mix, without supplementation (Invitrogen, Waltham, MA, cat. 11765054), 100 U/mL penicillin-streptomycin (Invitrogen, cat. 15140122), and 2.5% Matrigel (Corning Inc., Corning, NY, cat. 354248) for the first three passages. The 947758-054-R-J2-PDC line was cultured in 6B/Colon 1A media, which includes advanced DMEM/F-12 (Thermo Fisher Scientific, cat. 12634028), 10 mM HEPES (Thermo Fisher Scientific, cat. 15630080), 1X GlutaMAX supplement (Thermo Fisher Scientific, cat. 35050061), 0.1 mg/mL primocin (InvivoGen, cat. ant-pm-2), 10% defined fetal bovine serum, heat inactivated (HyClone Laboratories Inc., cat. SH30070.03HI), 1.25 mM N-Acetyl-L-cysteine (Sigma-Aldrich, cat. A9165), 10 mM nicotinamide (Sigma-Aldrich, cat. N0636), 1X B-27 supplement (Thermo Fisher Scientific, cat. 17504044), 1X N-2 supplement (Thermo Fisher Scientific, cat. 17502048), and 10 microM Y-27632 dihydrochloride (Tocris Bioscience, cat. 1254). The 876862-298-R-J1-PDC was cultured in 6E media, which includes all 6B/Colon 1A media components plus 50% L-WRN conditioned media (ATCC, cat. CRL-3276), 50 ng/mL recombinant human EGF recombinant protein (hEGF; Thermo Fisher Scientific, cat. PHG0311), 10 ng/mL recombinant human fibroblast growth factor 10 (hGFG-10; PeproTech, cat. 100-26), 1 ng/mL recombinant human fibroblast growth factor 2 (hFGF-2; PeproTech, cat. 100-18B), and 1 µM prostaglandin E2 (PGE2; Tocris, cat. 2296). The 227483-062-R1-J1-PDC line was cultured in Panc media, containing all 6E components except hFGF-2, with the addition of 500 nM SB-431542 (Selleckchem, cat. S1067) and 10 nM gastrin (Tocris, cat. 3006). […]"}
{"smiles": "C#Cc1c(F)ccc2cc(O)cc(-c3ncc4c(N5CC6CCC(C5)N6)nc(OCC56CCCN5CC(F)C6)nc4c3F)c12", "note": "(configuration not stated) + CN1CCN(c2cc(C(=O)Nc3cc4cc(-c5cnn(C)c5)ccc4cn3)ccn2)CC1", "values": [{"measurement": "IC50", "setting": "second compound 0.0316 µM", "result": 4.96, "unit": "µM"}, {"measurement": "IC50", "setting": "second compound 0.1 µM", "result": "< 0.0316", "unit": "µM"}, {"measurement": "IC50", "setting": "second compound 0.316 µM", "result": "< 0.0316", "unit": "µM"}, {"measurement": "IC50", "setting": "second compound 1 µM", "result": "< 0.0316", "unit": "µM"}, {"measurement": "IC50", "setting": "second compound 3.16 µM", "result": "< 0.0316", "unit": "µM"}, {"measurement": "IC50", "setting": "second compound 10 µM", "result": "< 0.0316", "unit": "µM"}, {"measurement": "viability, T/C", "setting": "second compound 0.0316 µM, first compound 0.0316 µM", "result": 83.1, "unit": "%"}, {"measurement": "viability, T/C", "setting": "second compound 0.0316 µM, first compound 0.1 µM", "result": 61, "unit": "%"}, {"measurement": "viability, T/C", "setting": "second compound 0.0316 µM, first compound 0.316 µM", "result": 66.3, "unit": "%"}, {"measurement": "viability, T/C", "setting": "second compound 0.0316 µM, first compound 1 µM", "result": 68.5, "unit": "%"}, {"measurement": "viability, T/C", "setting": "second compound 0.0316 µM, first compound 3.16 µM", "result": 57.3, "unit": "%"}, {"measurement": "viability, T/C", "setting": "second compound 0.0316 µM, first compound 10 µM", "result": 40.5, "unit": "%"}, {"measurement": "viability, T/C", "setting": "second compound 0.1 µM, first compound 0.0316 µM", "result": 24.2, "unit": "%"}, {"measurement": "viability, T/C", "setting": "second compound 0.1 µM, first compound 0.1 µM", "result": 19.4, "unit": "%"}, {"measurement": "viability, T/C", "setting": "second compound 0.1 µM, first compound 0.316 µM", "result": 19.8, "unit": "%"}, {"measurement": "viability, T/C", "setting": "second compound 0.1 µM, first compound 1 µM", "result": 17.4, "unit": "%"}, {"measurement": "viability, T/C", "setting": "second compound 0.1 µM, first compound 3.16 µM", "result": 15.2, "unit": "%"}, {"measurement": "viability, T/C", "setting": "second compound 0.1 µM, first compound 10 µM", "result": 11.8, "unit": "%"}, {"measurement": "viability, T/C", "setting": "second compound 0.316 µM, first compound 0.0316 µM", "result": 2.71, "unit": "%"}, {"measurement": "viability, T/C", "setting": "second compound 0.316 µM, first compound 0.1 µM", "result": 2.39, "unit": "%"}, {"measurement": "viability, T/C", "setting": "second compound 0.316 µM, first compound 0.316 µM", "result": 2.14, "unit": "%"}, {"measurement": "viability, T/C", "setting": "second compound 0.316 µM, first compound 1 µM", "result": 2.39, "unit": "%"}, {"measurement": "viability, T/C", "setting": "second compound 0.316 µM, first compound 3.16 µM", "result": 2.31, "unit": "%"}, {"measurement": "viability, T/C", "setting": "second compound 0.316 µM, first compound 10 µM", "result": 1.5, "unit": "%"}, {"measurement": "viability, T/C", "setting": "second compound 1 µM, first compound 0.0316 µM", "result": 0.1, "unit": "%"}, {"measurement": "viability, T/C", "setting": "second compound 1 µM, first compound 0.1 µM", "result": 0.14, "unit": "%"}, {"measurement": "viability, T/C", "setting": "second compound 1 µM, first compound 0.316 µM", "result": 0.17, "unit": "%"}, {"measurement": "viability, T/C", "setting": "second compound 1 µM, first compound 1 µM", "result": 0.12, "unit": "%"}, {"measurement": "viability, T/C", "setting": "second compound 1 µM, first compound 3.16 µM", "result": 0.09, "unit": "%"}, {"measurement": "viability, T/C", "setting": "second compound 1 µM, first compound 10 µM", "result": 0.09, "unit": "%"}, {"measurement": "viability, T/C", "setting": "second compound 3.16 µM, first compound 0.0316 µM", "result": 0.15, "unit": "%"}, {"measurement": "viability, T/C", "setting": "second compound 3.16 µM, first compound 0.1 µM", "result": 0.13, "unit": "%"}, {"measurement": "viability, T/C", "setting": "second compound 3.16 µM, first compound 0.316 µM", "result": 0.15, "unit": "%"}, {"measurement": "viability, T/C", "setting": "second compound 3.16 µM, first compound 1 µM", "result": 0.16, "unit": "%"}, {"measurement": "viability, T/C", "setting": "second compound 3.16 µM, first compound 3.16 µM", "result": 0.13, "unit": "%"}, {"measurement": "viability, T/C", "setting": "second compound 3.16 µM, first compound 10 µM", "result": 0.07, "unit": "%"}, {"measurement": "viability, T/C", "setting": "second compound 10 µM, first compound 0.0316 µM", "result": 0.1, "unit": "%"}, {"measurement": "viability, T/C", "setting": "second compound 10 µM, first compound 0.1 µM", "result": 0.11, "unit": "%"}, {"measurement": "viability, T/C", "setting": "second compound 10 µM, first compound 0.316 µM", "result": 0.11, "unit": "%"}, {"measurement": "viability, T/C", "setting": "second compound 10 µM, first compound 1 µM", "result": 0.16, "unit": "%"}, {"measurement": "viability, T/C", "setting": "second compound 10 µM, first compound 3.16 µM", "result": 0.17, "unit": "%"}, {"measurement": "viability, T/C", "setting": "second compound 10 µM, first compound 10 µM", "result": 0.13, "unit": "%"}]}
